Measured values published in patent US7514406B2, “Methods for inhibiting deacetylase activity” (Fred Hutchinson Cancer Research Center, priority 2001, dated 2009).

Experiments:
[1] = system: silent HML locus in G1-arrested MATa cells; assay: Maintenance of silent state in G1-arrested MATa cells; format: cell-based, S. cerevisiae
Source text: This was presumably due to loss of mating competence, a consequence of expression of the α2 gene from the “silent” HML locus. To test this idea more directly, a MATa strain with a single G1 cyclin gene (CLN3), which is under control of a galactose-inducible promoter (Cross, F. R. (1990) Mol. Cell Biol. 10, 6482-90), was arrested in G1 by replacing galactose with glucose in the media.

mammalian cells = assay: Toxicity assays using S1 and a variety of DNA damaging agents; format: cell-based
Source text: (1996) Science 272, 408-11)). In addition to histones, many other proteins are regulated by acetylation, including pRb, E2F and p53 proteins (Chan, H. M., et al. (2001) Nat. Cell Biol. 3,667-74; Martinez-Balbas, M. A., et al. (2000) EMBO J. 19,662-71; and Luo, J., et al. (2000) Nature 408, 377-81). Two recent reports (Vaziri, H., et al. (2001) Cell 107, 149-159 and Luo, J., et al. (2001) Cell 107, 137-148) implicate deacetylation of p53, by Sir2, in down-regulation of transcriptional and proapoptotic activities of p53 in response to DNA damage. […] P. (2001) Oncogene 20, 2988-90 and Tycko, […]. Clin. Invest 105, 245-6).

HMLα locus in MATa cells = assay: Pheromone response assay, silencing at the HMLα locus in MATa cells; format: cell-based, S. cerevisiae
Source text: When haploid MATa cells are exposed to the mating pheromone […], they arrest in G1 phase of the cell cycle. Loss of silencing at the HMLα locus in MATa cells results in expression of a mating type genes (Marsh, L., et al. (1991) Annu. Rev. Cell Biol. 7, 699-728). The coexpression of α and a genes creates a pseudo-diploid state: cells are immune to […] and unable to mate.

Rat1a cells = assay: Sensitization to etoposide, 3H-thymidine incorporation viability; format: cell-based, rat; details: S1 25, 50 and 100 μM with etoposide, 72 hours
Procedure: (§1) To test whether S1 could sensitize cells to DNA damage, mammalian cells were exposed to etoposide, a DNA damaging agent, in the presence and absence of S1. […] Viability of cells was assessed with 3H-thymidine incorporation.

[2] = system: mutant SIR2 (GAL-SIR2-Y298N or GAL-SIR2-H286Q); assay: HDA assay with drug resistant mutant Sir2p; format: biochemical, S. cerevisiae; details: in vitro, equivalent amounts of protein
Procedure: Briefly, histone H4 was chemically acetylated using the HDAC Assay Kit (Upstate Biotechnology). […] For the histone deacetylase assays, 50 μg of yeast whole-cell protein extract was incubated with [^3H] acetylated histone H4-peptide (40,000 cpm) with or without 500 μM NAD^+ in a 100 μl reaction. The buffer contained 150 mM NaCl, 25 mM sodium phosphate pH 7.4 and 1 mM DTT. Reactions were incubated at 30° C. for 16 hours and were stopped by the addition of 25 μl of 1 N HCl and 0.15 N acetic acid. Released [^3H] acetate was extracted with 400 μl of ethyl acetate.
To obtain further insight into the molecular mechanism by which S I inhibited deacetylase activity of Sir2p, mutant forms of Sir2p were generated that were resistant to the compound. […] Plasmid DNA was recovered from the individual colonies and was retransformed into the test strain to assure that drug resistance was conferred by SIR2-containing plasmid.

[3] = system: wild type BY4741 cells vs sir2, hst1, hst2, hst3, hst4 deletion mutants; assay: Whole genome DNA microarray transcriptional profiling; format: cell-based, S. cerevisiae
Source text: In addition to SIR2, the S. cerevisiae genome encodes four SIR2 homologues: HST1-4 (Homologue of Sir Two) (Brachmann, C. B., et al. (1995) Genes Dev. 9, 2888-902). Hst2p is located in the cytoplasm and is responsible for virtually all the NAD^+-dependent deacetylase activity detected in a cellular lysate (Smith, J. S., et al., (2000) Proc. Natl. Acad. Sci. USA 97, 6658-63). Its relevant biological substrate is unknown. Hst1p is required for transcriptional repression of meiotic genes (Xie, J., et al. (1999) EMBO J. 18, 6448-54), whereas little is known about the cellular function of Hst3p or Hst4p.
Strains for the DNA array experiments for the whole genome analysis were obtained from Research Genetics (wild type BY4741: MATa his3, leu2, met15, […] or isogenic sir2, hst1, hst2, hst3 and hst4 deletion mutants). Several colonies from fresh cultures were inoculated into synthetic complete medium with 2% glucose, grown overnight at 30° C., diluted to 0.5−1×10^6 cell/ml and grown for an additional 6-9 hours until reaching a density of 0.5−1×10^7 cells/ml. […] Total RNA was extracted using the hot acid phenol method. Microarray construction and hybridization protocols were modified from those described elsewhere (DeRisi, J. L. et al. (1997) Science 278, 680-6). Briefly, yeast microarrays were constructed employing a set of ˜6200 or specific PCR primer pairs (Research Genetics, Huntsville, Ala.), which were used to amplify each open reading frame (orf) of the yeast genome. Individual PCR products were verified as unique via gel electrophoresis and purified using ARRAYIT 96-well PCR purification kits (TeleChem International, Sunnyvale, Calif.). Purified PCR products were mechanically “spotted” in 3×SSC (450 mM sodium chloride and 45 mM sodium citrate, pH 7.0) onto poly-lysine coated microscope slides using an OMNIGRID high-precision robotic gridder (GeneMachines, San Carlo, Calif.). […]

[4] = system: primary human fibroblasts (HFF); assay: Sensitization to etoposide, 3H-thymidine incorporation viability; format: cell-based; details: S1 25, 50 and 100 μM with etoposide, 72 hours
Procedure: as §1

[5] = system: silenced telomeric URA3 gene; assay: URA3 telomeric silencing assay (cell-based screen for Sir2p inhibitors); set-up: species or system S. cerevisiae
Procedure: In order to find inhibitors of the deacetylase activity of Sir2p, screening was carried out to identify compounds that perturbed silencing at each of the loci at which Sir2p is known to act in S. cerevisiae: telomeres, HML, HMR, and the rDNA. The cell-based positive selection screen was designed so that inhibition of Sir2p activity permitted normal cell growth in order to avoid identifying cytotoxic compounds. Briefly, a yeast strain containing a marker gene, such as a nutritional marker, in close proximity to a telomeres in S. cerevisiae such that it is repressed by telomeric chromatin, is exposed to a test compound or set of test compounds dissolved in DMSO and cultured under suitable conditions and in media supplemented to permit growth only under conditions in which the marker gene is expressed. After a suitable interval, the optical density of the culture is measured. An increase in optical density corresponds to growth indicating a perturbation of silencing of the marker gene. All strains in this and other examples herein can be grown in synthetic complete media (SC) or selective synthetic drop-out media containing 2% glucose.
Initial screening for compounds that effect silencing was carried out using a URA3 assay. […] Eleven compounds identified in this primary screen were analyzed further to determine whether silencing at the HML and HMR loci was also affected.

rDNA locus = assay: Recombination at the rDNA locus (loss of ADE2 integrated into the rDNA array); format: cell-based, S. cerevisiae
Procedure: Silencing within the rDNA locus is manifested in two ways. It can weakly repress expression of an inserted reporter gene (Smith, J. S. & Boeke, J. D. (1997) Genes Dev. 11, 241-54), and it reduces recombination between tandem copies of the ribosomal RNA genes (Gottlieb, S. & Esposito, R. E. (1989) Cell 56, 771-6). Recombination was analyzed by measuring the loss rate of an ADE2 gene integrated into the rDNA array essentially as described by Kaeberlein, M., et al. (1999 Genes Dev. 13, 2570-80). […] After six hours, the cultures were plated onto rich medium and the loss of expression of the ADE2 gene was measured and scored by the development of sectored red colonies. […] Treatment with SI increased recombination rate at the rDNA locus seven-fold, which is similar to rates observed in a sir2 mutant (FIG. 1D).

[6] = system: TRP1 gene integrated at the silent HMR locus; assay: TRP1 reporter at silent HMR locus growth assay; format: cell-based, S. cerevisiae; details: tryptophan-deficient media, 36-48 h
Procedure: A secondary screening of the eleven identified compounds was carried out using a TRP1 gene which utilized a yeast strain with a TRP1 gene integrated at the silent HMR locus cannot grow in media lacking tryptophan (Buck, S. W. & Shore, D. (1995) Genes Dev. 9, 370-84). Using the method essentially described above, wells in a 96-well plate were inoculated with 150 μL of yeast culture (a yeast strain with a TRP1 gene integrated at the silent HMR locus), containing 1×10^5 cell/ml in tryptophan-deficient media. The eleven compounds dissolved in DMSO were added to the cells and the cultures are incubated for 36-48 h and growth in individual wells is tested by optical density (OD660) measurements and visual inspection.

[7] = 50 μg/ml cycloheximide 40 minutes prior to S1

Compound: O=C1CCc2c(ccc3ccccc23)O1 [S1, 1,2-dihydro-3H-naphtho[2,1-b]pyran-3-one]
- α2 mRNA expression from HML in G1-arrested cells ([1]; CLN3 galactose-inducible strain arrested by glucose, DMSO control): detected only in the S1-treated cells
- cell cycle progression of α factor G1-arrested MATa cells ([1]; untreated cells remained arrested in G1): progressed through the cell cycle
- sensitization to DNA damaging agents (mammalian cells): sensitizes mammalian cells
- silencing at HML (HMLα locus in MATa cells): disrupted silencing at HML
- mating of MATa cells (HMLα locus in MATa cells; in the presence of S1): defective for mating
- responsiveness of MATa cells to α factor (HMLα locus in MATa cells; in the presence of S1): lost responsiveness to α factor
- sensitization to etoposide (Rat1a cells): dose-dependent sensitization
- inhibitory effect on histone deacetylase activity of mutant proteins vs wild type Sir2p [2]: increased resistance
- overlap with HST2, HST3 or HST4 regulated genes [3]: no overlap
- transcriptional down-regulation by S1 in the absence of new protein synthesis [3, 7]: virtually all transcriptional down-regulation was abolished
- upregulation of genes by S1 with cycloheximide [3, 7]: did not affect
- sensitization to etoposide [4]: dose-dependent sensitization
- disruption of silencing in drug resistant SIR2 mutants vs wild type strains ([5]; SIR2-H286Q, SIR2-L287Q, SIR2-Y298N): required higher concentrations
- silencing at telomeric loci ([5]; URA3 telomeric marker, uracil-deficient media, 0.5, 5 and 50 μM, 36-48 h): disrupted silencing
- silencing of a reporter gene within the rDNA locus (rDNA locus): disrupted silencing
- increase of recombination rate at the rDNA locus (rDNA locus; 15 μM, six hours, similar to rates in a sir2 mutant): seven-fold
- effect on rDNA recombination in sir2 cells (rDNA locus; sir2 cells treated with the compound): no effect
- growth in media lacking tryptophan (loss of silencing at HMR) [6]: enabled cells to grow in media lacking tryptophan
